The target in data set [1] is T1, Greatwall kinase (GWL, MASTL) (Homo sapiens, UniProt Q96GX5, K72M).
T1 construct: full-length
T1 sequence (Q96GX5 1-879 K72M): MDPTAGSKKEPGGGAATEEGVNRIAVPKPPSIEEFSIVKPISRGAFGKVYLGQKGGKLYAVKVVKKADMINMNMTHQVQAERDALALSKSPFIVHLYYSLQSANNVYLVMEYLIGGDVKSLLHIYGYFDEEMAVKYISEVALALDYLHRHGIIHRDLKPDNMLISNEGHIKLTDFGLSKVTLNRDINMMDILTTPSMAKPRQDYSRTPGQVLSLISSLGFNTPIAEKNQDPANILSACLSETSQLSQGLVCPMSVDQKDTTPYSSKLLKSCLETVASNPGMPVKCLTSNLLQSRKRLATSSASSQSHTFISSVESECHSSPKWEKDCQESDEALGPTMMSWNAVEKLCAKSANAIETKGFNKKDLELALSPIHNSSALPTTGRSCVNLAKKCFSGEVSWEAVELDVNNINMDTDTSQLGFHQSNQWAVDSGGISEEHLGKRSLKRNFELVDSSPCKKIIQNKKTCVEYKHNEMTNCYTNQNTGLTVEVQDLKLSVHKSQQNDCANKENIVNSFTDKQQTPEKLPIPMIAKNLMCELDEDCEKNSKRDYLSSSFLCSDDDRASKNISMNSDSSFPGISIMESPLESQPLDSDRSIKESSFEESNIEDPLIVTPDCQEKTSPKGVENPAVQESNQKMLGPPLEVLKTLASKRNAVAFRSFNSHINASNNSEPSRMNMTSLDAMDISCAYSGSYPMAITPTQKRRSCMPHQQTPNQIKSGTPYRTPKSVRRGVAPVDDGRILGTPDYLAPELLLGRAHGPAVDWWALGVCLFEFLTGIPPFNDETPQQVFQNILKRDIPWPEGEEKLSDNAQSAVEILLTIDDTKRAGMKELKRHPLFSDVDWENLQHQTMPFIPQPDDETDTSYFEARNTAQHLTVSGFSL
Description: HTRF kinase assay with purified full-length GWL (K72M) and ENSA. It is filed as biochemical.

Data set [2] in a line: in vitro. More on the design: intrinsic clearance in mouse microsomes. Conditions: liver microsomes; mouse liver microsomes. An excerpt: We selected compound 1 as the lead exemplar of cluster 3 and leveraged it as a foundation for subsequent drug development (Fig. 1a). Structure-activity relationship studies and pharmacokinetic profiling produced several derivative molecules, of which compound 21 provided the best combination of outstanding inhibitory potential, low clearance in mouse microsomes and acceptable solubility (Fig. 1a–c and Supplementary Tables 1–4). […] This assessment was supported by structural modelling of the interaction between compound 21 and the active site of GWL (Fig. 1d). In further support of its GWL-targeting properties, compound 21 diminished the phosphorylation of the canonical GWL substrate ENSA(S67) in Xenopus laevis cytostatic factor (CSF) egg extract (Supplementary Fig. 2). Having satisfied the criteria of prospective GWL inhibitor, the racemic compound 21 was registered as UOS-00054604 and, for the remainder of the manuscript, is referred to as C-604.

For data set [3], the target named is CDK1/cyclinB (Homo sapiens, UniProt P06493). In words: biochemical. Set-up: CDK1/cyclin B and off-target kinase inhibition assay.
Data set [4] has as its target GSK3B (Homo sapiens, UniProt P49841). In words: biochemical. Conditions: read-out: IC50 (C-604). Set-up: LanthaScreen kinase activity assay (Thermo Fisher), dose-dependent inhibition by C-604. Here is the method: (§1) To identify potential C-604 off-targets, we utilised a commercially available off-target screening service (Thermo Fisher Scientific) to assess the impact of C-604 on the in vitro activity of 100 human kinases (Supplementary Fig. 8a). Out of 100 tested targets, C-604 (1 µM) inhibited GWL (inhibition 95%) and an additional 10 kinases (inhibition ≥ 80%). […] The in vitro off-target effects of compound C-604 were determined by assessing its inhibitory potential in a panel of 100 human kinases using the LanthaScreen Kinase Activity Assay (Thermo Fisher Scientific).

Data set [5] addresses T2, MAP3K7 (Homo sapiens, UniProt O43318).
T2 sequence (O43318 1-606): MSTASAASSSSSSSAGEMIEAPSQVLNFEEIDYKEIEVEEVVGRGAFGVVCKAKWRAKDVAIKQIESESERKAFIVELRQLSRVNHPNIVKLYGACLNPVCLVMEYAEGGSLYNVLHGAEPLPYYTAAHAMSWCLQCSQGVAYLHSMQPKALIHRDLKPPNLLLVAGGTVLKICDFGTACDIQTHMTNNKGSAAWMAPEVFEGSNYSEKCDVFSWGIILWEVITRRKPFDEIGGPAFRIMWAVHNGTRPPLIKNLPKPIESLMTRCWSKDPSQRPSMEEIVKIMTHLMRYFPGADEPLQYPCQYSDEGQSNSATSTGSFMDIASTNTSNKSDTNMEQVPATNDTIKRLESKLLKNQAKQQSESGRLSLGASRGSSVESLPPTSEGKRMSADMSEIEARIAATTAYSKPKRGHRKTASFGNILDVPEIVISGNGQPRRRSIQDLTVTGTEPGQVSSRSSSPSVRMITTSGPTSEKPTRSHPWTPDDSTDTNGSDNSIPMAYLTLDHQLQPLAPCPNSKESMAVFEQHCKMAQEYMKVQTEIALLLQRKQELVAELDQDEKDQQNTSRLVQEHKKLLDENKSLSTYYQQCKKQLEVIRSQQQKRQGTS
Description: biochemical. More on the design: LanthaScreen kinase activity assay (Thermo Fisher), dose-dependent inhibition by C-604. Conditions: read-out: IC50 (C-604). Here is the method:
as §1

For data set [6], the target named is T3, STK17A (Homo sapiens, UniProt Q9UEE5).
T3 sequence (Q9UEE5 1-414): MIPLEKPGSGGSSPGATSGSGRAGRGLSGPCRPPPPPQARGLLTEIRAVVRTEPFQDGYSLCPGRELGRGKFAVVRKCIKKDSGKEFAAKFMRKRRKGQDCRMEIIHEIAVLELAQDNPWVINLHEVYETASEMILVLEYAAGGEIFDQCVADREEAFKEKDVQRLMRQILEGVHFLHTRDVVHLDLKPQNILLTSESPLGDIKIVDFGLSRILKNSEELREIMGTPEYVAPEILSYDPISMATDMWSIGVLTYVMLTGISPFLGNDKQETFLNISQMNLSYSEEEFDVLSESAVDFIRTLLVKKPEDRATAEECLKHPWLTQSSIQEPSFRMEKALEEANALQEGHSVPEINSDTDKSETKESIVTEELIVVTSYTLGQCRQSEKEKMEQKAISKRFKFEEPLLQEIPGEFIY
Description: biochemical. Set-up: LanthaScreen kinase activity assay (Thermo Fisher), dose-dependent inhibition by C-604. Conditions: read-out: IC50 (C-604). The protocol: as §1

Bounds are passed on as bounds.

For orientation: IC50 means the concentration at which inhibition is half-maximal. One may read the microsomal CLint as the rate of metabolic loss divided by the concentration.

CDK1/cyclinB, sequence (P06493 whole entry): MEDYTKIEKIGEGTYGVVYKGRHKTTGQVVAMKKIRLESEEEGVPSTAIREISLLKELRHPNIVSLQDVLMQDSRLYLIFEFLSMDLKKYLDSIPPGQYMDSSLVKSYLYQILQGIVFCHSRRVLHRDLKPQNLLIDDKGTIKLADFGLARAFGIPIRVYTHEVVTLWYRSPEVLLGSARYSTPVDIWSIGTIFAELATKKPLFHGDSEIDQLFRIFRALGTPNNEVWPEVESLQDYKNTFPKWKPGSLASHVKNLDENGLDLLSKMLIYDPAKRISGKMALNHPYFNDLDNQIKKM
CDK1/cyclinB, sequence (P14635 whole entry partner): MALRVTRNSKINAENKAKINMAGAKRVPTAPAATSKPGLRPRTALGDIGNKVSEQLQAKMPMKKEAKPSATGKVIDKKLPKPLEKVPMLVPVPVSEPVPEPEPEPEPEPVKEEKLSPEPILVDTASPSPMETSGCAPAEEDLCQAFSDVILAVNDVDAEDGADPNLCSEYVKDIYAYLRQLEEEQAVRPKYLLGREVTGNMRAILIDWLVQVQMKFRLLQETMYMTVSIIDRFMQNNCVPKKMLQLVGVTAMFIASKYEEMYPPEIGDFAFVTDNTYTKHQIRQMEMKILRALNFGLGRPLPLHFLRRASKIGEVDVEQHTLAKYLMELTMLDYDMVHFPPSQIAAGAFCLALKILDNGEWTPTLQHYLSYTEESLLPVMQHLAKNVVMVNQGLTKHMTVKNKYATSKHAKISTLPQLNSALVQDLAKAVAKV
GSK3B, sequence (P49841 whole entry): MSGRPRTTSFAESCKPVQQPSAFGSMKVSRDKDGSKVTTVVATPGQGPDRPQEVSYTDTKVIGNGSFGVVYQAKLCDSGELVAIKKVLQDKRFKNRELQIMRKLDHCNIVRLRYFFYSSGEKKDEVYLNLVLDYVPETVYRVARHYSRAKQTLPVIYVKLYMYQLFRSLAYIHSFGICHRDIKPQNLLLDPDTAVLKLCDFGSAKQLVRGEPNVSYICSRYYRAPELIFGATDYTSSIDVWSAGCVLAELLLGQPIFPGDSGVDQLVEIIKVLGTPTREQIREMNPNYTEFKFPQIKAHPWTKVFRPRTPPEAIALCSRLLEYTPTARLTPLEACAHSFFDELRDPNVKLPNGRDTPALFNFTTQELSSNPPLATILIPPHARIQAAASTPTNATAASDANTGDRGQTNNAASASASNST

Consider `CNC(=O)c1c[nH]c2ncc(-c3ccc(OCCN4CCC(c5ccccc5)C4)cc3)nc12` (racemic) [compound 21, C-604], for which the IC50 was 9 ± 7.7 nM in data set [1]; more than 30000 nM in data set [3]; 283 nM in data set [4]; 126 nM in data set [5]; 154 nM in data set [6]. For the same molecule, the microsomal CLint in data set [2] was 24 µL/min/mg.
